Tests used:
Format in all cases: cell-based, Staphylococcus aureus
BAA-1720 MRSA = assay: MRSA detection from BD BBL CultureSwabs (Table 4)
Description: Bacterial strains were serially diluted and BD BBL CultureSwabs™ were inoculated with 50 ul of LB with approximately the target number of cells of 1000 CFU, 500 CFU, 250 CFU, 125 CFU, 63 CFU, 31 CFU, 16 CFU, or 8 CFU. Swabs were eluted with 1 mL modified Amies solution (included with commercially available Copan e-Swabs™). 135 μL of the eluted solution was added to each well. 15 μL of cefoxitin was added to the wells to reach a final concentration of 1.8 μg/mL, 3.6 μg/mL, or 5.4 μg/mL. The plate was then sealed and incubated at 37° C. for 2 hours. 10 μL of recombinant phage (1.6×10^8 pfu/mL) was added to each well. The plate was then re-sealed and incubated at 37° C. for an additional 2 hours. A master mix was made containing 15 μL 5× lysis buffer, 50 μL luciferase assay buffer, and 1 μL luciferase substrate per well. 65 μL of master mix was added to each well. Luminescence from the reactions were read on a GLOMAX® Navigator and relative luminal units (RLU) for each reaction were plotted and analyzed. RLU values three times greater than an established background RLU level for modified Amies solution (>1500 RLU) were considered positive. The results, shown in Table 4, indicate that a positive MRSA determination was made with 23 CFU in a well, originating from approximately 125 CFU on a swab when incubated with the previously established cut-off of 1.8 μg/mL. Positive results are highlighted in grey.

[1] = tested on: BAA-1720 - MRSA in co-culture with 12600 - MSSA; assay: Table 6, MRSA in co-culture with MSSA
Description: Bacterial strains were serially diluted and transferred to a 96-well plate at 135 μL per well. 15 μL of cefoxitin was added to the wells to reach a final concentration of 1.8 μg/mL. The plate was then sealed and incubated at 37° C. for 2 hours or 3 hours. 10 μL of recombinant phage (1.6×10^8 pfu/mL) was added to each well. The plate was then re-sealed and incubated at 37° C. for an additional 1 or 2 hours. A master mix was made containing 15 μL 5× lysis buffer, 50 μL luciferase assay buffer, and 1 μL luciferase substrate per well. 65 μL of master mix was added to each well. Luminescence from the reactions was read on a GLOMAX® Navigator and relative luminal units (RLU) for each reaction were plotted and analyzed. RLU values three times greater than an established background RLU level for LB (>750 RLU) were considered positive. The results, shown in Table 6, indicate that samples with MRSA (38 CFU) can be distinguished from samples containing MSSA (up to 5088 CFU) using a 3-hour antibiotic/1-hour phage incubation protocol. Positive results are in bold. In Table 6, CFU values (318 CFU and 156 CFU) were experimentally validated by direct plating.

MSSA = assay: Optimization of cefoxitin concentration (Table 2), MSSA strains
Description: Bacterial strains were serially diluted to approximately 1×10^3 CFU/mL and transferred to a 96-well plate at 135 μL per well. 15 μL of cefoxitin was added to the wells to reach a final concentration of 1.4 μg/mL, 1.6 μg/mL, 1.8 μg/mL or 2.0 μg/mL. The plate was then sealed and incubated at 37° C. for 2 hours. 10 μL of recombinant phage (1.6×10^8 pfu/mL) was added to each well. The plate was then re-sealed and incubated at 37° C. for an additional 2 hours. A master mix was made containing 15 μL 5× lysis buffer, 50 μL luciferase assay buffer, and 1 μL luciferase substrate per well. 65 μL of master mix was added to each well. Luminescence from the reactions were read on a GLOMAX® Navigator and relative luminal units (RLU) for each reaction were plotted and analyzed. RLU values three times greater than an established background RLU level for LB (>750 RLU) were considered positive. The results, shown in Table 2, indicate that the recombinant phage are capable of detecting these bacterial strains. […] Positive results are in bold.

[2] = target swab CFU 8, detected CFU 3
[3] = target swab CFU 16, detected CFU 1
[4] = target swab CFU 31, detected CFU 4
[5] = target swab CFU 63, detected CFU 5
[6] = target swab CFU 125, detected CFU 23
[7] = target swab CFU 250, detected CFU 28
[8] = target swab CFU 500, detected CFU 31
[9] = target swab CFU 1000, detected CFU 76
[10] = MSSA detected CFU 1272, MRSA 38
[11] = MSSA detected CFU 2544, MRSA 38
[12] = MSSA detected CFU 5088, MRSA 38
[13] = MSSA detected CFU 10176, MRSA 38
[14] = strain 12600 MSSA, detected CFU 401
[15] = strain AR0484 MSSA, detected CFU 107
[16] = strain AR0485 MSSA, detected CFU 248
[17] = strain AR0486 MSSA, detected CFU 163
[18] = strain AR0487 MSSA, detected CFU 198
[19] = strain AR0488 MSSA, detected CFU 360
[20] = strain AR0489 MSSA, detected CFU 186
[21] = strain AR0490 MSSA, detected CFU 109
[22] = strain AR0491 MSSA, detected CFU 239
[23] = strain AR0492 MSSA, detected CFU 130
[24] = strain BAA-1721 MSSA, detected CFU 166

CO[C@@]1(NC(=O)Cc2cccs2)C(=O)N2C(C(=O)O)=C(COC(N)=O)CS[C@@H]21 [Cefoxitin, cefoxitin]
Cefoxitin (RLU) 1.8 ug/mL (BAA-1720 MRSA; [2]): 615 RLU
Cefoxitin (RLU) 3.6 ug/mL (BAA-1720 MRSA; [2]): 513 RLU
Cefoxitin (RLU) 5.4 ug/mL (BAA-1720 MRSA; [2]): 789 RLU
Cefoxitin (RLU) 1.8 ug/mL (BAA-1720 MRSA; [3]): 1711 RLU
Cefoxitin (RLU) 3.6 ug/mL (BAA-1720 MRSA; [3]): 1623 RLU
Cefoxitin (RLU) 5.4 ug/mL (BAA-1720 MRSA; [3]): 1172 RLU
Cefoxitin (RLU) 1.8 ug/mL (BAA-1720 MRSA; [4]): 3572 RLU
Cefoxitin (RLU) 3.6 ug/mL (BAA-1720 MRSA; [4]): 1469 RLU
Cefoxitin (RLU) 5.4 ug/mL (BAA-1720 MRSA; [4]): 1438 RLU
Cefoxitin (RLU) 1.8 ug/mL (BAA-1720 MRSA; [5]): 900 RLU
Cefoxitin (RLU) 3.6 ug/mL (BAA-1720 MRSA; [5]): 1068 RLU
Cefoxitin (RLU) 5.4 ug/mL (BAA-1720 MRSA; [5]): 948 RLU
Cefoxitin (RLU) 1.8 ug/mL (BAA-1720 MRSA; [6]): 3630 RLU
Cefoxitin (RLU) 3.6 ug/mL (BAA-1720 MRSA; [6]): 4720 RLU
Cefoxitin (RLU) 5.4 ug/mL (BAA-1720 MRSA; [6]): 4597 RLU
Cefoxitin (RLU) 1.8 ug/mL (BAA-1720 MRSA; [7]): 6254 RLU
Cefoxitin (RLU) 3.6 ug/mL (BAA-1720 MRSA; [7]): 3843 RLU
Cefoxitin (RLU) 5.4 ug/mL (BAA-1720 MRSA; [7]): 3381 RLU
Cefoxitin (RLU) 1.8 ug/mL (BAA-1720 MRSA; [8]): 7571 RLU
Cefoxitin (RLU) 3.6 ug/mL (BAA-1720 MRSA; [8]): 7693 RLU
Cefoxitin (RLU) 5.4 ug/mL (BAA-1720 MRSA; [8]): 5263 RLU
Cefoxitin (RLU) 1.8 ug/mL (BAA-1720 MRSA; [9]): 13210 RLU
Cefoxitin (RLU) 3.6 ug/mL (BAA-1720 MRSA; [9]): 7193 RLU
Cefoxitin (RLU) 5.4 ug/mL (BAA-1720 MRSA; [9]): 6922 RLU
2 HR AB + 2 HR Phage 1.8 ug/mL ([1]; MSSA detected CFU 156, MRSA 38): 5084 RLU
3 HR AB + 1 HR Phage 1.8 ug/mL ([1]; MSSA detected CFU 156, MRSA 38): 3976 RLU
2 HR AB + 2 HR Phage 1.8 ug/mL ([1]; MSSA detected CFU 318, MRSA 38): 7143 RLU
3 HR AB + 1 HR Phage 1.8 ug/mL ([1]; MSSA detected CFU 318, MRSA 38): 4567 RLU
2 HR AB + 2 HR Phage 1.8 ug/mL ([1]; MSSA detected CFU 636, MRSA 38): 7217 RLU
3 HR AB + 1 HR Phage 1.8 ug/mL ([1]; MSSA detected CFU 636, MRSA 38): 3946 RLU
2 HR AB + 2 HR Phage 1.8 ug/mL [1, 10]: 6263 RLU
3 HR AB + 1 HR Phage 1.8 ug/mL [1, 10]: 4930 RLU
2 HR AB + 2 HR Phage 1.8 ug/mL [1, 11]: 10730 RLU
3 HR AB + 1 HR Phage 1.8 ug/mL [1, 11]: 3749 RLU
2 HR AB + 2 HR Phage 1.8 ug/mL [1, 12]: 11400 RLU
3 HR AB + 1 HR Phage 1.8 ug/mL [1, 12]: 3548 RLU
2 HR AB + 2 HR Phage 1.8 ug/mL [1, 13]: 13260 RLU
3 HR AB + 1 HR Phage 1.8 ug/mL [1, 13]: 5347 RLU
effect on positive signal (MSSA; 1.8 ug/mL, most MSSA strains): selectively inhibit a positive signal
Cefoxitin Concentration 1.4 ug/mL (MSSA; [14]): 2489 RLU
Cefoxitin Concentration 1.6 ug/mL (MSSA; [14]): 1596 RLU
Cefoxitin Concentration 1.8 ug/mL (MSSA; [14]): 974 RLU
Cefoxitin Concentration 2 ug/mL (MSSA; [14]): 750 RLU
Cefoxitin Concentration 1.4 ug/mL (MSSA; [15]): 174 RLU
Cefoxitin Concentration 1.6 ug/mL (MSSA; [15]): 176 RLU
Cefoxitin Concentration 1.8 ug/mL (MSSA; [15]): 187 RLU
Cefoxitin Concentration 2 ug/mL (MSSA; [15]): 181 RLU
Cefoxitin Concentration 1.4 ug/mL (MSSA; [16]): 1328 RLU
Cefoxitin Concentration 1.6 ug/mL (MSSA; [16]): 812 RLU
Cefoxitin Concentration 1.8 ug/mL (MSSA; [16]): 655 RLU
Cefoxitin Concentration 2 ug/mL (MSSA; [16]): 404 RLU
Cefoxitin Concentration 1.4 ug/mL (MSSA; [17]): 4238 RLU
Cefoxitin Concentration 1.6 ug/mL (MSSA; [17]): 1743 RLU
Cefoxitin Concentration 1.8 ug/mL (MSSA; [17]): 1099 RLU
Cefoxitin Concentration 2 ug/mL (MSSA; [17]): 794 RLU
Cefoxitin Concentration 1.4 ug/mL (MSSA; [18]): 336 RLU
Cefoxitin Concentration 1.6 ug/mL (MSSA; [18]): 227 RLU
Cefoxitin Concentration 1.8 ug/mL (MSSA; [18]): 204 RLU
Cefoxitin Concentration 2 ug/mL (MSSA; [18]): 165 RLU
Cefoxitin Concentration 1.4 ug/mL (MSSA; [19]): 2274 RLU
Cefoxitin Concentration 1.6 ug/mL (MSSA; [19]): 1149 RLU
Cefoxitin Concentration 1.8 ug/mL (MSSA; [19]): 402 RLU
Cefoxitin Concentration 2 ug/mL (MSSA; [19]): 256 RLU
Cefoxitin Concentration 1.4 ug/mL (MSSA; [20]): 6208 RLU
Cefoxitin Concentration 1.6 ug/mL (MSSA; [20]): 3172 RLU
Cefoxitin Concentration 1.8 ug/mL (MSSA; [20]): 2029 RLU
Cefoxitin Concentration 2 ug/mL (MSSA; [20]): 870 RLU
Cefoxitin Concentration 1.4 ug/mL (MSSA; [21]): 1277 RLU
Cefoxitin Concentration 1.6 ug/mL (MSSA; [21]): 598 RLU
Cefoxitin Concentration 1.8 ug/mL (MSSA; [21]): 423 RLU
Cefoxitin Concentration 2 ug/mL (MSSA; [21]): 258 RLU
Cefoxitin Concentration 1.4 ug/mL (MSSA; [22]): 1438 RLU
Cefoxitin Concentration 1.6 ug/mL (MSSA; [22]): 676 RLU
Cefoxitin Concentration 1.8 ug/mL (MSSA; [22]): 518 RLU
Cefoxitin Concentration 2 ug/mL (MSSA; [22]): 338 RLU
Cefoxitin Concentration 1.4 ug/mL (MSSA; [23]): 1883 RLU
Cefoxitin Concentration 1.6 ug/mL (MSSA; [23]): 839 RLU
Cefoxitin Concentration 1.8 ug/mL (MSSA; [23]): 556 RLU
Cefoxitin Concentration 2 ug/mL (MSSA; [23]): 246 RLU
Cefoxitin Concentration 1.4 ug/mL (MSSA; [24]): 2753 RLU
Cefoxitin Concentration 1.6 ug/mL (MSSA; [24]): 1087 RLU
Cefoxitin Concentration 1.8 ug/mL (MSSA; [24]): 441 RLU
Cefoxitin Concentration 2 ug/mL (MSSA; [24]): 258 RLU
